Measured values as given in ChEMBL document CHEMBL5505970 (J Med Chem, 2024).
Active and inactive are the calls of the source. No cut-off for these calls is given here.

How the values were obtained:
[1] = target: ATR/ATRIP (Homo sapiens, UniProt Q13535); assay: Inhibition of human ATR/ATRIP using GST-tagged p53 as substrate in presence of 3 uM ATP by AlphaScreen assay; format: protein-complex assay
[2] = target: T1, Serine/threonine-protein kinase ATR (Homo sapiens, UniProt Q13535); assay: Inhibition of ATR in human HeLa S3 cells assessed as decrease in CHK1 phosphorylation at Ser345 residue pretreated for 20 mins followed by gemcitabine stimulation for 3.5 to 4 hrs by AlphaScreen SurFire assay; format: cell-based
T1 sequence (Q13535 whole entry): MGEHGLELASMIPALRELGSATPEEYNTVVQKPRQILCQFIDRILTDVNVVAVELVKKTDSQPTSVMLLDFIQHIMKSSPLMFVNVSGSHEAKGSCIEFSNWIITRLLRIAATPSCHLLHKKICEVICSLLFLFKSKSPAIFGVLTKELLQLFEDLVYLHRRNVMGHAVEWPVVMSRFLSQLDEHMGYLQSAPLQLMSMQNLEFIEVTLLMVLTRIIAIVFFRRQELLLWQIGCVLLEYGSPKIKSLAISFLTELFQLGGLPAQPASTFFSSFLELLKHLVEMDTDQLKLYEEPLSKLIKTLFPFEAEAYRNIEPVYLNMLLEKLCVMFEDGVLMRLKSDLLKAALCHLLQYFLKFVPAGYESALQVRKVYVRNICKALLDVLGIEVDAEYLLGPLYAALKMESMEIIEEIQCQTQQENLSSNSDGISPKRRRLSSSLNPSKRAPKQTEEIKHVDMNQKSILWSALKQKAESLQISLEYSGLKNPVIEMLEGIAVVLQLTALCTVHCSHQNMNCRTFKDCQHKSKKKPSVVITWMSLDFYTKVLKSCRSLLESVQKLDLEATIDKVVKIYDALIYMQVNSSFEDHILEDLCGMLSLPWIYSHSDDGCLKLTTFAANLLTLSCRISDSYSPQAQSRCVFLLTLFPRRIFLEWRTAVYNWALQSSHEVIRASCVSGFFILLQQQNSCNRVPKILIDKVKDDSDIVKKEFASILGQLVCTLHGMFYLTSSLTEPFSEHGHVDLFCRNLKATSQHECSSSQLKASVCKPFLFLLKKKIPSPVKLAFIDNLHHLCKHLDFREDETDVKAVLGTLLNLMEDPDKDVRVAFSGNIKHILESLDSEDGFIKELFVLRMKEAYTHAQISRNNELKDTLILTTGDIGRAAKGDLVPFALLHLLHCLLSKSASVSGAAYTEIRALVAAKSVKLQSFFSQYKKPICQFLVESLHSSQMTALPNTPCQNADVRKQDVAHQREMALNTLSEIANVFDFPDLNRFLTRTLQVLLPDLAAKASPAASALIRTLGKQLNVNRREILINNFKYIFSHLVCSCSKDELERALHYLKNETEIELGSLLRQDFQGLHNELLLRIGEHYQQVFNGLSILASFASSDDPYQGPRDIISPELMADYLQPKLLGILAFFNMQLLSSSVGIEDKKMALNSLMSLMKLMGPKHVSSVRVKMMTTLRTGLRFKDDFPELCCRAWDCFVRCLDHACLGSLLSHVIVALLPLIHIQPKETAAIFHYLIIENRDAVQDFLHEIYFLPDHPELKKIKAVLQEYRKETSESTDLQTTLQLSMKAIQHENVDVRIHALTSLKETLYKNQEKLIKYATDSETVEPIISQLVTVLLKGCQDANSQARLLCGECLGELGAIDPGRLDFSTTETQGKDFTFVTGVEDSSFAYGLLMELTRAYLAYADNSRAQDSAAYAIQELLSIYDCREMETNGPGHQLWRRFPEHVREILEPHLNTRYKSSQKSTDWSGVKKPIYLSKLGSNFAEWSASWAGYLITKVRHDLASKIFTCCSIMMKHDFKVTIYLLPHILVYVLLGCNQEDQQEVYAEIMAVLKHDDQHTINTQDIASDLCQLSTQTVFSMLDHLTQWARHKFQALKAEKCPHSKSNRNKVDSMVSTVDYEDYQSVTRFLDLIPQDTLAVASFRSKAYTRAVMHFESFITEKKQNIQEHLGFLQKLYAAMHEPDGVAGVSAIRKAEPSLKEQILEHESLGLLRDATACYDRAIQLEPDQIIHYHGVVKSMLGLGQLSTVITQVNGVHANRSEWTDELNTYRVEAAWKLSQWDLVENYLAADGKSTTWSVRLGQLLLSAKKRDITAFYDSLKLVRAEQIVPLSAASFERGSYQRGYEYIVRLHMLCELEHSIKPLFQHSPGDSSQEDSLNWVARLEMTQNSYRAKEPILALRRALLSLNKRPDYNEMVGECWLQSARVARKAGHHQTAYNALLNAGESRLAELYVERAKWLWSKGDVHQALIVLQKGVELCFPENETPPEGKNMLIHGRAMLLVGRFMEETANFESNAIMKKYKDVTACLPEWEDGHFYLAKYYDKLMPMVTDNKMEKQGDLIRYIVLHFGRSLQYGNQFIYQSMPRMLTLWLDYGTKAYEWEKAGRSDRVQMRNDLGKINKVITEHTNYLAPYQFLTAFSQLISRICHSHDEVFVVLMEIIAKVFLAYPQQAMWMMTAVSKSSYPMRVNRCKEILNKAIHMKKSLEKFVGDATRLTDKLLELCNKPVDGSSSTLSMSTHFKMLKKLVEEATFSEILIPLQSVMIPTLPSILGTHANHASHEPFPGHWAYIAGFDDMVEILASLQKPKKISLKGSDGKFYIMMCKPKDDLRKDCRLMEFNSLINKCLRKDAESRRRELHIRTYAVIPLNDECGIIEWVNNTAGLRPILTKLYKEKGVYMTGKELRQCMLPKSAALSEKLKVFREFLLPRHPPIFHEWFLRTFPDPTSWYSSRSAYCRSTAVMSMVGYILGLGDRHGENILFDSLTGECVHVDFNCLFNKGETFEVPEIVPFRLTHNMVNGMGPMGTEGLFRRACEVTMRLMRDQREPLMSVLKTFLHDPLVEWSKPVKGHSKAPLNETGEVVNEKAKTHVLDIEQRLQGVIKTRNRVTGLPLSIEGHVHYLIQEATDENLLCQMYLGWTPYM

[3] = Clearance in human hepatocytes at 1 uM measured per million cells by ESI/LC-MS/MS analysis; format: ADME, cell-based, Hepatocyte; details: read-out: CLH
[4] = Clearance in human liver microsomes at 1 uM in presence of NADPH by ESI/LC-MS/MS analysis; format: ADME, Microsome; details: read-out: CLH
[5] = organism: Homo sapiens; assay: Selectivity ratio of IC50 for inhibition of mTOR in human HeLa S3 cells to IC50 for inhibition of ATR in human HeLa S3 cells; format: cell-based; details: time 1.0 hrs
[6] = Inhibition of human full length recombinant ATR M211T mutant using GST-c-Myc-p53 as substrate measured after 30 mins in presence of Mg/ATP mix by ELISA
[7] = target: Serine-protein kinase ATM (Homo sapiens, UniProt Q13315); assay: Inhibition of human full length recombinant ATM using GST-c-Myc-p53 as substrate measured after 30 mins in presence of Mg/ATP mix by ELISA
[8] = target: DNA-dependent protein kinase catalytic subunit (Homo sapiens, UniProt P78527); assay: Inhibition of human full length recombinant DNA-PK using GST-c-Myc-p53 as substrate measured after 30 mins in presence of Mg/ATP mix by ELISA
[9] = target: Serine/threonine-protein kinase mTOR (Homo sapiens, UniProt P42345); assay: Inhibition of human full length recombinant mTOR measured after 40 mins in presence of [gamma-33P]ATP by radiometric scintillation counting analysis
[10] = system: LoVo; assay: Cytotoxicity against human LoVo cells assessed as reduction in cell viability incubated for 5 days by CellTiter-Glo assay; format: functional, cell-based; details: 120 h
[11] = Oral bioavailability in Sprague-Dawley rat at 2.5 to 5 mg/kg formulated as a solution in 5% NMP:95% (10% VitE TPGS in water) measured for 24 hrs by reverse phase liquid chromatography coupled to mass spectrometry; format: ADME, organism-based; details: in vivo, dose 2.5-5 mg/kg
[12] = Clearance in Sprague-Dawley rat at 1 mg/kg, iv formulated as a solution in 10% PG:18% PEG400 in water or 5% NMP:95% (10% VitE TPGS in water) measured for 24 hrs by reverse phase liquid chromatography coupled to mass spectrometry; format: ADME, organism-based; details: in vivo
[13] = Apparent permeability of the compound in human Caco-2 cells at 10 uM measured for 90 mins by LC-MS/MS analysis; format: ADME, cell-based
[14] = Efflux ratio of apparent permeability in human Caco-2 cells at 10 uM measured for 90 mins by LC-MS/MS analysis; format: ADME, cell-based
[15] = system: Granta-519; assay: Antitumor activity against human Granta-519 cells xenografted in NOD-SCID mouse assessed as decrease in tumor volume at 50 mg/kg, po bid for 3 days and measured at 4 days after drug treatment cessation; format: functional, organism-based; details: time 3.0 day
[16] = Toxicity in NOD-SCID mouse xenografted with human Granta-519 cells assessed as reduction in red blood cells at 50 mg/kg, po bid for 3 days and 4 days off treatment and measured on day 14; format: organism-based; details: in vivo, 72 h, time 3 day
[17] = Toxicity in NOD-SCID mouse xenografted with human Granta-519 cells assessed as early stage erythroblasts at 30 mg/kg, po bid for 3 days and measured at 4 days after treatment discontinuation by flow cytometry; format: organism-based; details: in vivo, 72 h, time 3 day
[18] = Toxicity in NOD-SCID mouse xenografted with human Granta-519 cells assessed as late stage erythroblasts at 30 mg/kg, po bid for 3 days and measured at 4 days after treatment discontinuation by flow cytometry; format: organism-based; details: in vivo, 72 h, time 3 day
[19] = target: T1, Serine/threonine-protein kinase ATR; assay: Inhibition of ATR (unknown origin) by Morrison equation based analysis
[20] = target: Dual specificity tyrosine-phosphorylation-regulated kinase 1A (Homo sapiens) (UniProt Q13627); assay: Inhibition of DYRK1A in human Jurkat cell lysates at 0.03 to 0.3 uM in presence of biotinylated ADP by KiNativ profiling based mass spectrometry; format: subcellular; details: dose 0.03-0.3 µM
[21] = target: Glycogen synthase kinase-3 alpha (Homo sapiens) (UniProt P49840); assay: Inhibition of GSK3A in human Jurkat cell lysates at 0.03 to 0.3 uM in presence of biotinylated ADP by KiNativ profiling based mass spectrometry; format: subcellular; details: dose 0.03-0.3 µM
Glycogen synthase kinase-3 alpha (Homo sapiens), sequence (P49840 2-483 limits assumed): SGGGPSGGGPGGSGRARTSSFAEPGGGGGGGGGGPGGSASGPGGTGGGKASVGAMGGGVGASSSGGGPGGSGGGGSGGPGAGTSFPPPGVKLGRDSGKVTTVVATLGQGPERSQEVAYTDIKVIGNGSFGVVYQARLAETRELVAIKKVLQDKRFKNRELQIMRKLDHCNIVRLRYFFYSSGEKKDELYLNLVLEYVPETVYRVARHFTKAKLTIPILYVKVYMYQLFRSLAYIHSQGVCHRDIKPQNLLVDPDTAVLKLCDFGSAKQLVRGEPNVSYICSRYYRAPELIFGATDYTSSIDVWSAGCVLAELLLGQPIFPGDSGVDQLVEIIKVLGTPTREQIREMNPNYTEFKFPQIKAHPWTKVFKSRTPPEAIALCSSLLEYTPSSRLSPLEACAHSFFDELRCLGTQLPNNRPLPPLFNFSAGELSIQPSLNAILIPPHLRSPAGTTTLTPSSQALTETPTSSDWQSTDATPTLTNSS

[22] = target: Glycogen synthase kinase-3 beta (Homo sapiens) (UniProt P49841); assay: Inhibition of GSK3B in human Jurkat cell lysates at 0.03 to 0.3 uM in presence of biotinylated ADP by KiNativ profiling based mass spectrometry; format: subcellular; details: dose 0.03-0.3 µM
Glycogen synthase kinase-3 beta (Homo sapiens), sequence (P49841 whole entry, looked up): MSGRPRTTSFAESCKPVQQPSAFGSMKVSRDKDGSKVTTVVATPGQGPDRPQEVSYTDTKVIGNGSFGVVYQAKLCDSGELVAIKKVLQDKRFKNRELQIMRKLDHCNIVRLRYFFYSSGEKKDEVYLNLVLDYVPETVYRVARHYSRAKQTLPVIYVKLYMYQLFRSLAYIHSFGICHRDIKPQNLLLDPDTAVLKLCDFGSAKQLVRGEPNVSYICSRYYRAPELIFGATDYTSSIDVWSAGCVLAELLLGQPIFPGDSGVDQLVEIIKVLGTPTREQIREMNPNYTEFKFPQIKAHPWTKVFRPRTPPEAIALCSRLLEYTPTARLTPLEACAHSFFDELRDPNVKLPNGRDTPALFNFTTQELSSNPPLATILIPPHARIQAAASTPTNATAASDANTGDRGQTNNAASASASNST

[23] = target: T1, Serine/threonine-protein kinase ATR; assay: Inhibition of ATR in gemcitabine-stimulated human LoVo cells assessed as decrease in CHK1 phosphorylation at Ser345 residue; format: cell-based
[24] = organism: Homo sapiens; assay: Selectivity ratio of IC50 for inhibition of mTOR in human LoVo cells using pP70S6K (Thr389) as substrate to IC50 for inhibition of ATR in gemcitabine-stimulated human LoVo cells using CHK1 (Ser345) as substrate; format: cell-based

ATR/ATRIP, sequence (Q13535 whole entry): as the sequence (Q13535 whole entry) above
ATR/ATRIP, sequence (Q8WXE1 whole entry, further chain): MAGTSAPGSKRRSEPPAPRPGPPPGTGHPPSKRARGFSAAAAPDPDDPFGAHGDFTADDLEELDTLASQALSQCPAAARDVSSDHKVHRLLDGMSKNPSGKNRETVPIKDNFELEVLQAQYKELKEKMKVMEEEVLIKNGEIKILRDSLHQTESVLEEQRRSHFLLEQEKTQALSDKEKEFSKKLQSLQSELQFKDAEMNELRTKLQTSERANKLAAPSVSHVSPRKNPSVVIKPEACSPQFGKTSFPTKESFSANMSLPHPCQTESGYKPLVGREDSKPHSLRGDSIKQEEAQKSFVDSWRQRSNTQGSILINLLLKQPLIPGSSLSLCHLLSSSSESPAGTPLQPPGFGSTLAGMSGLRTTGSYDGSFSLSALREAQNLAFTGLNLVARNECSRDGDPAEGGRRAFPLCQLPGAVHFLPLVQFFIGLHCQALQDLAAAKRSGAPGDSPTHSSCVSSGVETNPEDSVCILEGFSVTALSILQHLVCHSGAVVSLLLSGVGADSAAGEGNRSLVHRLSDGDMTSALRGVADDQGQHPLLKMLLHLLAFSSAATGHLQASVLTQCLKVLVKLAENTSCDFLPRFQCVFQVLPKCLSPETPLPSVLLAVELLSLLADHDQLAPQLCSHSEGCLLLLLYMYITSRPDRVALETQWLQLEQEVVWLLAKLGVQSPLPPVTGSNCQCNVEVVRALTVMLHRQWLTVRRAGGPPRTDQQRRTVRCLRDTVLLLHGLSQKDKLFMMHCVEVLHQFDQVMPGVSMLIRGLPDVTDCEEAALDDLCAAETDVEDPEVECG

C[C@@H]1COCCN1c1cc(C2(S(C)(=O)=O)CC2)nc(Cc2cc[nH]n2)n1
IC50 [1]: > 700 nM | IC50 [2]: > 10000 nM

C[C@@H]1COCCN1c1cc(C2(S(C)(=O)=O)CC2)nc(Nc2cn[nH]c2)n1
IC50 [2]: > 10000 nM

Cc1cc2c(C3(S(C)(=O)=O)CC3)cc(N3CCOC[C@H]3C)nc2n1-c1cc[nH]n1
IC50 [1]: > 1000 nM

C[C@@H]1COCCN1c1cc(C2(S(C)(=O)=O)CC2)c2ccn(-c3cc[nH]n3)c2n1
hepatocyte CLint at 1 µM [3]: < 2.9 µL/min/1e6 cells | microsomal CLint at 1 µM [4]: < 11.8 µL/min/mg

C[C@@H]1COCCN1c1cc(I)c2cnn(-c3cc[nH]n3)c2n1
Ratio IC50 [5]: 1.6

C[C@@H]1COCCN1c1cc(C2(S(C)(=O)=O)CC2)nc(-c2cccc3[nH]ccc23)n1
IC50 [6]: 10 nM

CNCc1ccc(-c2cc(-c3nc(-c4ccc(S(=O)(=O)C(C)C)cc4)cnc3N)on2)cc1 [BERZOSERTIB]
IC50 [6]: 5 nM | IC50 [7]: 85 nM | IC50 [8]: 3600 nM | IC50 [9]: 4800 nM

C[C@@H]1COCCN1c1cc(C2([S@](C)(=N)=O)CC2)nc(-c2cc[nH]c3nccc2-3)n1 [CERALASERTIB]
IC50 [6]: 134 nM | IC50 [10]: 377 nM

C[C@@H]1COCCN1c1cc(-c2ccccc2C(N)=O)c2cnn(-c3ccn[nH]3)c2n1
microsomal CLint at 1 µM [4]: < 11.6 µL/min/mg | bioavailability [11]: 2% | clearance [12]: 45 mL/min/kg

C[C@@H]1COCCN1c1cc(C(C)(C)C(N)=O)c2cnn(-c3cc[nH]n3)c2n1
IC50 [2]: 9 nM

C[C@@H]1COCCN1c1ccc2cnn(-c3cc[nH]n3)c2n1
IC50 [2]: 60 nM | Ratio IC50 [5]: 4

C[C@@H]1COCCN1c1cc(C(C)(C)C#N)c2cnn(-c3cc[nH]n3)c2n1
IC50 [2]: 0.8 nM | Ratio IC50 [5]: 6.6 | microsomal CLint at 1 µM [4]: < 11.6 µL/min/mg | Papp at […], 10 µM [13]: 17 ×10⁻⁶ cm/s | efflux ratio at […], 10 µM [14]: 0.9 | bioavailability [11]: 56% | clearance [12]: 15 mL/min/kg

C[C@@H]1COCCN1c1cc(-c2ccnn2C)c2ccnc(-c3ccn[nH]3)c2n1 [ELIMUSERTIB]
IC50 [10]: 27 nM | Activity [15]: Active | Activity [16]: Toxic | Activity [17]: Non-Toxic | Activity [18]: Non-Toxic

C[C@@H]1COCCN1c1cc(C2(S(C)(=O)=O)CC2)nc(S(=O)(=O)c2cc[nH]n2)n1
IC50 [1]: 160 nM | IC50 [2]: > 10000 nM

C[C@@H]1COCCN1c1cc(C2(O)CCC(F)(F)CC2)c2cnn(-c3cc[nH]n3)c2n1
microsomal CLint at 1 µM [4]: < 11.6 µL/min/mg

C[C@@H]1COCCN1c1cc(I)c2cnn(-c3ccn[nH]3)c2n1
IC50 [2]: 7 nM | microsomal CLint at 1 µM [4]: 23 µL/min/mg

C[C@@H]1COCCN1c1cc(C2(S(C)(=O)=O)CC2)nc(N(C)c2cc[nH]n2)n1
IC50 [1]: > 1000 nM

C[C@@H]1COCCN1c1cc(C(C)(C)O)c2cnn(-c3cc[nH]n3)c2n1
IC50 [2]: 21 nM

Cc1c[nH]nc1Nc1nc(N2CCOC[C@H]2C)cc(C2(S(C)(=O)=O)CC2)n1
IC50 [1]: > 1000 nM | IC50 [2]: > 10000 nM

Nc1nn2cc(F)cnc2c1C(=O)Nc1cncc(F)c1N1CCC(C(=O)N2CCN(C3COC3)CC2)CC1 [M4344]
IC50 [1]: 160 nM | Ki [19]: 2.9 nM | IC50 [2]: 5 nM | Ratio IC50 [5]: 27 | inhibition [20]: Active | inhibition [21]: Active | inhibition [22]: Active | IC50 [23]: 1.1 nM | Ratio IC50 [24]: 63
